Reference: patent US20080014585A1, “SYNERGISTIC ACTIVATION OF REGULATORY ELEMENTS BY REL PROTEINS AND A STEROID RECEPTOR” (N.V. Organon, priority 2000, published 2008)
Entries after “also recorded” stand apart in the source; their conditions may differ.

Legend:
human ERα = target: T1, human ERα (Homo sapiens, UniProt P03372); assay: 5-HT1A receptor promoter (-901luc) luciferase reporter, COS-1 cells cotransfected with NF-κB (p50, p65) and ERα; format: cell-based
T1 construct: expressed in transfected cells; host or cells: COS-1 (monkey)
T1 sequence (P03372 1-595): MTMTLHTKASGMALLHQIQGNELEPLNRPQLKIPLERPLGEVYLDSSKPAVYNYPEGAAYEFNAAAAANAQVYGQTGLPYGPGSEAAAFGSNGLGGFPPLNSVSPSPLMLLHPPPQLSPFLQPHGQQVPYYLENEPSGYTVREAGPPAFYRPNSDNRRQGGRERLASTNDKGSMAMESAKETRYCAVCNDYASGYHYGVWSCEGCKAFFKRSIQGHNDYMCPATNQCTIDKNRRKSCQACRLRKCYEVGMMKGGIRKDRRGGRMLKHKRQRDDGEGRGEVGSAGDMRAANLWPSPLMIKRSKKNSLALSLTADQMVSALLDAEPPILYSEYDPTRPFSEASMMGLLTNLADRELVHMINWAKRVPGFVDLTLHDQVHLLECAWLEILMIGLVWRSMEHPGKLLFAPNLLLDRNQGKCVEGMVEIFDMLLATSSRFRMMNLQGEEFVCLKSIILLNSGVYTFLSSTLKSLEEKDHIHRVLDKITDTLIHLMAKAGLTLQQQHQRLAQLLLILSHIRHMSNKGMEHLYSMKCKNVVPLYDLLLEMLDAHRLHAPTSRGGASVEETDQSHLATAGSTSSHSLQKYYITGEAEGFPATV
Excerpt: Depicted is the induction of luciferase activity evoked by NF-κB over cells transfected with empty expression vector. Bars represent the mean of at least three independent experiments ±S.D. (B) COS-1 cells were transiently transfected with 4×NF-κ B(HIV)tkluc in combination with empty expression vector or expression vectors encoding the p50 and p65 subunits of NF-κB and expression vectors encoding ERα or ERβ. Cells were either untreated (white bars) or treated with 10^−8 M E2 (black bars) for 24 h. Depicted is the induction of luciferase activity evoked by NF-κB over cells transfected with empty expression vector. Bars represent the mean of at least three independent experiments ±S.D.
(A) COS-1 cells were transiently transfected with the −901luc reporter construct together with empty expression vector or expression vectors encoding the p50 and p65 subunits of NF-κB in combination with expression vectors encoding ERα and treated with E2, OH-T or ICI for 24 h as indicated. Depicted is the induction of luciferase activity evoked by NF-κB over cells transfected with empty expression vector. Bars represent the mean of at least three independent experiments ±S.D. FIG. 4. […] Depicted is the induction of luciferase activity evoked by the NF-κB subunits over cells transfected with empty expression vector. Bars represent the mean of at least three independent experiments ±S.D.
Cell Culture. […]

classical ERE = conditions: transactivation experiments, reference 22; cited from earlier work
ERα = ERα (Homo sapiens, UniProt P03372); conditions: cited from earlier work

For 4-hydroxytamoxifen, the “enhancement of 5-HT1A receptor promoter activity by ERα and NF-κB” value (human ERα) is given as “further induced; also recorded: as potent as E2”, the “transcription of genes regulated by a classical ERE” value (classical ERE) is given as “inhibited transcription” and the “transcription of genes under the control of an AP-1 element with ERα” value (ERα) is given as “activated”.
